Results on one compound are retold here after patent publication US20150164781A1, “Personal Care Products Containing Extracts of Chinese Lantern (Physalis alkekengi)” (Kemin Industries, Inc., priority 2013, published 2015).

The experiment can be described thus: Microtiter plate DPPH antioxidant assay. Conditions: 0.05 mg/mL DPPH, five minutes at 25° C., absorbance 517 nm; from polynomial regression. How it is done:
HPLC grade reagent alcohol was obtained from Fisher Scientific, catalog number A995-4. 2,2-Diphenyl-1-picrylhydrazyl (DPPH) was from Fisher Scientific, catalog number AA4415003. Trolox was from Fisher Scientific, catalog number 05-402-25. Test material was prepared as in Example 1 (LumiSalisTM SE lot 592142P5, 592142P8 and 592142P9). Absorbance was measured using a Molecular Devices SpectraMax M5e plate reader (KH51-001) with a clear, flat-bottom 96-well plate, […] Science […] catalog number CC plate-PS-965-F-C-S. Masses were measured with a Mettler Toledo analytical balance (Model X5204). […] The controls and samples were all plated in triplicate and the average absorbance value was used for results calculations. The plate was shaken and incubated at 25° C. in the microplate reader for five minutes. The absorbance was measured at 517 nm. The sample concentrations (x-axis) are plotted against their respective relative average absorbance value (subtracted the average absorbance of the background from the average absorbance) at 517 nm (y-axis) and the best fit line (a polynomial fit) is calculated. The […] (50% inhibition) of each control and sample were calculated based on the polynomial regression line equation.

For `Cc1c(C)c2c(c(C)c1O)CCC(C)(C(=O)O)O2` (stereo not shown) [trolox, Trolox], the “IC50 on DPPH assay” value was 0.0010%.
